Laboratory results reported in patent publication US20230398130A1, “METHODS AND COMPOSITIONS FOR DIFFERENTIATING STEM CELLS” (Massachusetts Institute of Technology, priority 2020, published 2023).
Structures can show the parent of a compound that is named as a salt.

What was measured:
[1] = test system: ISC-enriched organoids; assay: Secondary (validation) screen, 384-well 2.5-D, ENR+CD 6 days, n=8 wells, vs ENR+CD+DMSO control: ATP (CTG); assay type: cell-based, murine
Description: (§1) Drugs were tested at a narrowed dose range around each treatment's identified optimal dose from the primary screen (4× below, 2× above and below).
(§2) High-throughput screening.
(§3) Secondary lysozyme secretion assay screen. Confirmatory secondary screening with primary hits was performed using the above 384-well plate method. The screen was conducted with 4-plate replicates with a base media of ENR+CD. Media was supplemented with compound at day 0 and day 3 (n=8 well replicates per dose) at four different doses: two-fold above, two-fold below, and four-fold below the optimal final dose for each respective treatment. Additionally, each plate carried a large number of ENR+DMSO or ENR+CD+DMSO (vehicle) control wells (n=100 for ATP, and n=25 for LYZ.NS and LYZ.S) for robust normalization. ATP, non-stimulated lysozyme activity and CCh-stimulated lysozyme activity was again measured and the collected data was again processed in a custom R-script, per primary screen with slight modification. Values were log10 transformed, and a plate-wise FC was calculated for each well based on the median value of ENR+CD+DMSO (vehicle) control wells to normalize plate to plate variability.

[2] = test system: ISC-enriched organoids; assay: Secondary (validation) screen, 384-well 2.5-D, ENR+CD 6 days, n=8 wells, vs ENR+CD+DMSO control: basal lysozyme secretion (LYZ.NS); assay type: cell-based, murine
Description: as §1, §2, §3

[3] = test system: ISC-enriched organoids; assay: Secondary (validation) screen, 384-well 2.5-D, ENR+CD 6 days, n=8 wells, vs ENR+CD+DMSO control: carbachol-induced lysozyme secretion (LYZ.S); assay type: cell-based, murine
Description: as §1, §2, §3

[4] = test system: ISC-enriched organoids; assay: Primary screen, 384-well 2.5-D organoid differentiation (ENR+CD, 6 days, Target Selective Inhibitor Library, vs whole-plate median): ATP (CellTiter-Glo 3D, CTG); conditions: for Z.CTG: standard z score of FC

COc1cc(Nc2c(C#N)cnc3cc(OCCCN4CCN(C)CC4)c(OC)cc23)c(Cl)cc1Cl [Bosutinib (SKI-606), Bosutinib]
Z.CTG ([1]; Dose 0.02 uM): 1.944
repSSMD.CTG ([1]; Dose 0.02 uM): 1.251
Z.CTG ([1]; Dose 0.04 uM): 1.254
repSSMD.CTG ([1]; Dose 0.04 uM): 0.876
Z.CTG ([1]; dose 0.08 uM): 0.735
repSSMD.CTG ([1]; dose 0.08 uM): 0.584
Z.LYZ.NS ([2]; Dose 0.02 uM): 1.061
repSSMD.LYZ.NS ([2]; Dose 0.02 uM): 1.620
Z.LYZ.NS ([2]; Dose 0.04 uM): −0.535
repSSMD.LYZ.NS ([2]; Dose 0.04 uM): −0.666
Z.LYZ.NS ([2]; dose 0.08 uM): −0.562
repSSMD.LYZ.NS ([2]; dose 0.08 uM): −0.903
repSSMD.LYZ.S ([3]; Dose 0.02 uM): 1.147
Z.LYZ.S ([3]; Dose 0.04 uM): −0.663
repSSMD.LYZ.S ([3]; Dose 0.04 uM): −0.977
Z.LYZ.S ([3]; dose 0.08 uM): −0.554
repSSMD.LYZ.S ([3]; dose 0.08 uM): −0.892
Z.CTG ([4]; primary screen, dose 0.08 uM): 1.499
Z.CTG ([4]; primary screen, dose 0.40 uM): 0.720
Z.CTG ([4]; primary screen, dose 2.00 uM): −0.405
Z.CTG ([4]; primary screen, dose 10.00 uM): −1.595

CCOc1ccc(Cc2cc([C@@H]3O[C@H](CO)[C@@H](O)[C@H](O)[C@H]3O)ccc2Cl)cc1 [Dapagliflozin]
Z.CTG ([1]; Dose 0.02 uM): 0.770
repSSMD.CTG ([1]; Dose 0.02 uM): 0.643
Z.CTG ([1]; Dose 0.04 uM): 1.569
repSSMD.CTG ([1]; Dose 0.04 uM): 0.979
Z.CTG ([1]; dose 0.08 uM): 1.346
repSSMD.CTG ([1]; dose 0.08 uM): 0.777
Z.LYZ.NS ([2]; Dose 0.02 uM): 0.173
repSSMD.LYZ.NS ([2]; Dose 0.02 uM): 0.231
Z.LYZ.NS ([2]; Dose 0.04 uM): 1.197
repSSMD.LYZ.NS ([2]; Dose 0.04 uM): 1.267
Z.LYZ.NS ([2]; dose 0.08 uM): 0.462
repSSMD.LYZ.NS ([2]; dose 0.08 uM): 0.537
Z.LYZ.S ([3]; Dose 0.02 uM): −0.144
repSSMD.LYZ.S ([3]; Dose 0.02 uM): −0.225
Z.LYZ.S ([3]; Dose 0.04 uM): 0.528
repSSMD.LYZ.S ([3]; Dose 0.04 uM): 0.751
Z.LYZ.S ([3]; dose 0.08 uM): 0.530
repSSMD.LYZ.S ([3]; dose 0.08 uM): 0.879
Z.CTG ([4]; Dose 0.08 uM): 0.980
Z.CTG ([4]; Dose 0.40 uM): 0.607
Z.CTG ([4]; Dose 2.00 uM): 0.699
Z.CTG ([4]; Dose 10.00 uM): 0.719

CC(C)(C)NC(=O)[C@H]1CC[C@H]2[C@@H]3CC[C@H]4NC(=O)C=C[C@]4(C)[C@H]3CC[C@]12C [Finasteride]
Z.CTG ([1]; Dose 0.02 uM): 0.596
repSSMD.CTG ([1]; Dose 0.02 uM): 0.358
Z.CTG ([1]; Dose 0.04 uM): −1.623
repSSMD.CTG ([1]; Dose 0.04 uM): −0.994
Z.CTG ([1]; dose 0.08 uM): −0.099
repSSMD.CTG ([1]; dose 0.08 uM): −0.083
Z.LYZ.NS ([2]; Dose 0.02 uM): 0.445
repSSMD.LYZ.NS ([2]; Dose 0.02 uM): 0.362
Z.LYZ.NS ([2]; Dose 0.04 uM): −1.510
repSSMD.LYZ.NS ([2]; Dose 0.04 uM): −2.570
Z.LYZ.NS ([2]; dose 0.08 uM): −1.522
repSSMD.LYZ.NS ([2]; dose 0.08 uM): −2.177
Z.LYZ.S ([3]; Dose 0.02 uM): −0.147
repSSMD.LYZ.S ([3]; Dose 0.02 uM): −0.197
Z.LYZ.S ([3]; Dose 0.04 uM): −1.996
repSSMD.LYZ.S ([3]; Dose 0.04 uM): −3.825
Z.LYZ.S ([3]; dose 0.08 uM): −1.859
repSSMD.LYZ.S ([3]; dose 0.08 uM): −2.574
Z.CTG ([4]; Dose 0.08 uM): 0.360
Z.CTG ([4]; Dose 0.40 uM): −0.092
Z.CTG ([4]; Dose 2.00 uM): 0.174
Z.CTG ([4]; Dose 10.00 uM): −0.097

COc1ccc(C2CNC(=O)C2)cc1OC1CCCC1 (centres unmarked) [Rolipram]
Z.CTG ([1]; Dose 0.50 uM): 0.477
repSSMD.CTG ([1]; Dose 0.50 uM): 0.368
Z.CTG ([1]; Dose 1.00 uM): 1.198
repSSMD.CTG ([1]; Dose 1.00 uM): 0.832
Z.CTG ([1]; Dose 4.00 uM): 0.583
repSSMD.CTG ([1]; Dose 4.00 uM): 0.447
Z.CTG ([1]; dose 2.00 uM): 1.819
repSSMD.CTG ([1]; dose 2.00 uM): 1.420
Z.LYZ.NS ([2]; Dose 0.50 uM): −0.342
repSSMD.LYZ.NS ([2]; Dose 0.50 uM): −0.478
Z.LYZ.NS ([2]; Dose 1.00 uM): 1.213
repSSMD.LYZ.NS ([2]; Dose 1.00 uM): 1.715
Z.LYZ.NS ([2]; Dose 4.00 uM): −0.407
repSSMD.LYZ.NS ([2]; Dose 4.00 uM): −0.543
Z.LYZ.NS ([2]; dose 2.00 uM): 0.793
repSSMD.LYZ.NS ([2]; dose 2.00 uM): 0.950
Z.LYZ.S ([3]; Dose 0.50 uM): −0.631
repSSMD.LYZ.S ([3]; Dose 0.50 uM): −0.936
Z.LYZ.S ([3]; Dose 1.00 uM): 0.801
repSSMD.LYZ.S ([3]; Dose 1.00 uM): 1.107
Z.LYZ.S ([3]; Dose 4.00 uM): −0.543
repSSMD.LYZ.S ([3]; Dose 4.00 uM): −0.736
Z.LYZ.S ([3]; dose 2.00 uM): 0.227
repSSMD.LYZ.S ([3]; dose 2.00 uM): 0.169
Z.CTG (standard z score) ([4]; Dose 0.08 uM, primary screen): 0.850
Z.CTG (standard z score) ([4]; Dose 0.40 uM, primary screen): 0.370
Z.CTG (standard z score) ([4]; Dose 2.00 uM, primary screen): 0.945
Z.CTG (standard z score) ([4]; Dose 10.00 uM, primary screen): 0.714

N#CC[C@H](C1CCCC1)n1cc(-c2ncnc3[nH]ccc23)cn1 [Ruxolitinib (INCB018424), Ruxolitinib]
Z.CTG ([1]; Dose 2.50 uM): −0.128
repSSMD.CTG ([1]; Dose 2.50 uM): −0.090
Z.CTG ([1]; Dose 5.00 uM): −2.016
repSSMD.CTG ([1]; Dose 5.00 uM): −1.168
Z.CTG ([1]; Dose 20.00 uM): 1.496
repSSMD.CTG ([1]; Dose 20.00 uM): 0.952
Z.CTG ([1]; dose 10.00 uM): −1.380
repSSMD.CTG ([1]; dose 10.00 uM): −1.030
Z.LYZ.NS ([2]; Dose 2.50 uM): −1.251
repSSMD.LYZ.NS ([2]; Dose 2.50 uM): −1.701
Z.LYZ.NS ([2]; Dose 5.00 uM): −1.098
repSSMD.LYZ.NS ([2]; Dose 5.00 uM): −1.569
Z.LYZ.NS ([2]; Dose 20.00 uM): 0.522
repSSMD.LYZ.NS ([2]; Dose 20.00 uM): 0.930
Z.LYZ.NS ([2]; dose 10.00 uM): −0.671
repSSMD.LYZ.NS ([2]; dose 10.00 uM): −1.103
Z.LYZ.S ([3]; Dose 2.50 uM): −1.400
repSSMD.LYZ.S ([3]; Dose 2.50 uM): −1.806
Z.LYZ.S ([3]; Dose 5.00 uM): −1.667
repSSMD.LYZ.S ([3]; Dose 5.00 uM): −2.281
Z.LYZ.S ([3]; Dose 20.00 uM): 0.208
repSSMD.LYZ.S ([3]; Dose 20.00 uM): 0.382
Z.LYZ.S ([3]; dose 10.00 uM): −1.289
repSSMD.LYZ.S ([3]; dose 10.00 uM): −2.212
Z.CTG (standard z score) ([4]; Dose 0.08 uM, primary screen): 1.093
Z.CTG (standard z score) ([4]; Dose 0.40 uM, primary screen): 0.867
Z.CTG (standard z score) ([4]; Dose 2.00 uM, primary screen): 1.062
Z.CTG (standard z score) ([4]; Dose 10.00 uM, primary screen): 1.140

C[C@H](NCc1ccc(OCc2cccc(F)c2)cc1)C(N)=O [Safinamide Mesylate]
Z.CTG ([1]; Dose 0.50 uM): −0.127
repSSMD.CTG ([1]; Dose 0.50 uM): −0.118
Z.CTG ([1]; Dose 1.00 uM): −0.743
repSSMD.CTG ([1]; Dose 1.00 uM): −0.547
Z.CTG ([1]; Dose 4.00 uM): −0.022
repSSMD.CTG ([1]; Dose 4.00 uM): −0.013
Z.CTG ([1]; dose 2.00 uM): −0.098
repSSMD.CTG ([1]; dose 2.00 uM): −0.060
Z.LYZ.NS ([2]; Dose 0.50 uM): −1.244
repSSMD.LYZ.NS ([2]; Dose 0.50 uM): −1.484
Z.LYZ.NS ([2]; Dose 1.00 uM): −1.847
repSSMD.LYZ.NS ([2]; Dose 1.00 uM): −2.985
Z.LYZ.NS ([2]; Dose 4.00 uM): −0.272
repSSMD.LYZ.NS ([2]; Dose 4.00 uM): −0.431
Z.LYZ.NS ([2]; dose 2.00 uM): −0.368
repSSMD.LYZ.NS ([2]; dose 2.00 uM): −0.556
Z.LYZ.S ([3]; Dose 0.50 uM): −1.637
repSSMD.LYZ.S ([3]; Dose 0.50 uM): −2.413
Z.LYZ.S ([3]; Dose 1.00 uM): −2.259
repSSMD.LYZ.S ([3]; Dose 1.00 uM): −3.571
Z.LYZ.S ([3]; Dose 4.00 uM): −0.658
repSSMD.LYZ.S ([3]; Dose 4.00 uM): −0.942
Z.LYZ.S ([3]; dose 2.00 uM): −0.757
repSSMD.LYZ.S ([3]; dose 2.00 uM): −1.243
Z.CTG (standard z score) ([4]; Dose 0.08 uM, primary screen): 0.633
Z.CTG (standard z score) ([4]; Dose 0.40 uM, primary screen): 0.575
Z.CTG (standard z score) ([4]; Dose 2.00 uM, primary screen): 0.627
Z.CTG (standard z score) ([4]; Dose 10.00 uM, primary screen): 0.883
